In patent US20200189989A1, “APPLICATION OF SYRINGIC ACID IN PROMOTING NITRIFICATION INHIBITION ACTIVITY OF DECANEDIOL” (Institute of Soil Science, Chinese Academy of Sciences, priority 2018, published 2020):

What was measured:
Format in all cases: cell-based
[1] = tested on: Nitrosomonas europaea (NBRC 14298); assay: Nitrification activity inhibition experiment, Nitrosomonas europaea (NO2- production, improved Griess method); conditions: 2 hours, 25° C., dark
Procedure: Standard: a syringic acid standard was purchased from Sigma-Aldrich (St. Louis, Mo., USA), and the solid powder thereof was weighed and dissolved in DMSO. A 1,9-decanediol standard was purchased from WuXi AppTec, and the solid powder thereof was dissolved in DMSO while frozen over the dry ice (the 1,9-decanediol standard was a viscous liquid substance under normal temperature). Microbial strains: Nitrosomonas europaea (NBRC 14298) was purchased from Biological Resource Center, NITE, Japan. Microbial culture medium: a HEPES medium, which contained 2.5 g of (NH4)2SO4, 0.5 g of KH2PO4, 11.92 g of HEPES, 0.5 g of NaHCO3, 100 mg of MgSO4.7H2O, 5 mg of CaCl2.2H2O, and 75 mg of Fe-EDTA per 1 L liquid medium, at pH 7.8-8.0. Culture of microorganisms: Nitrosomonas europaea was inoculated in the HEPES medium and cultured at 30° C. and 200 rpm under a dark condition (aerobic), and the Nitrosomonas europaea enters a stable period 7-9 days after transfer each time. Nitrification activity inhibition experiment: The bacterial solution cultured for 7 days was collected, centrifuged at 5000 g for 20 min, and resuspended in a fresh and sterile HEPES medium until the OD600 reached about 1.0, with a concentration multiple of 40-50 times. Taken was a 1.5 mL sterile centrifuge tube, and it was sequentially added with 195 μL of sterile water, 5 μL of different concentrations of solutions of syringic acid and 1,9-decanediol in DMSO, 100 μL of the fresh and sterile HEPES medium, and 200 μL of a resuspended bacterial solution, and then cultured in a water bath at 25° C. under a dark condition for 2 hours. Then the mixed system was added with 20 μL of 0.1M Allylthiourea to terminate the nitrosification. […] of the reacted mixture was added into a 10 mL colorimetric tube, diluted to about 5 mL with deionized water, added with 1 mL of a sulfanilic acid solution, shaken well and then subjected to standing for 2-8 min, then added with 1 mL of a hydrochloric acid N-(1-naphthyl)-ethylenediamine solution, shaken well, diluted to 10 mL with water to obtain a constant volume. Deionized water was used as a reference, and the absorbances were determined at a wavelength of 540 nm. The reticle of NO2^− was made in the same manner to quantify the NO2^− generated in the sample system, and the sample inhibition rate was calculated by the following formula. This determination method was an improved Griess method, which could be referred to the national standard “determination of nitrite in the wet precipitation -N-(1-naphthyl)-1,2-diaminoethane spectrophotometry”. Nitrosification inhibition rate (%)=(1-the produced amount of NO2^− of the sample/the produced amount of NO2^− of a blank)×100%

[2] = tested on: Nitrosomonas stercoris (NBRC 110753); assay: Nitrification activity inhibition experiment, Nitrosomonas stercoris (NO2- production, improved Griess method); conditions: 2 hours, 25° C., dark
Procedure: Nitrification activity inhibition experiment: The bacterial solution cultured for 7 days was collected, centrifuged at 5000 g for 20 min, and resuspended in a fresh and sterile HEPES medium until the OD600 reached about 1.0, with a concentration multiple of 40-50 times. Taken was a 1.5 mL sterile centrifuge tube, and it was sequentially added with 195 μL of sterile water, 5 μL of different concentrations of solutions of syringic acid and 1,9-decanediol in DMSO, 100 μL of the fresh and sterile HEPES medium, and 200 μL of a resuspended bacterial solution, and then cultured in a water bath at 25° C. under a dark condition for 2 hours. Then the mixed system was added with 20 μL of 0.1M Allylthiourea to terminate the nitrosification. […] of the reacted mixture was added into a 10 mL colorimetric tube, diluted to about 5 mL with deionized water, added with 1 mL of a sulfanilic acid solution, shaken well and then subjected to standing for 2-8 min, then added with 1 mL of a hydrochloric acid N-(1-naphthyl)-ethylenediamine solution, shaken well, diluted to 10 mL with water to obtain a constant volume. Deionized water was used as a reference, and the absorbances were determined at a wavelength of 540 nm. The reticle of NO2^− was made in the same manner to quantify the NO2^− generated in the sample system, and the sample inhibition rate was calculated by the following formula. This determination method was an improved Griess method, which could be referred to the national standard “determination of nitrite in the wet precipitation -N-(1-naphthyl)-1,2-diaminoethane spectrophotometry”. Nitrosification inhibition rate (%)=(1-the produced amount of NO2^− of the sample/the produced amount of NO2^− of a blank)×100% The selection and formulation of the standard were the same as those of Embodiment 1. Microbial Strains: Nitrosomonas stercoris (NBRC 110753) was purchased from Biological Resource Center, NITE, Japan. The microbial culture medium and microbial culture were the same as those of Embodiment 1. Nitrification activity inhibition experiment: The bacterial solution of Nitrosomonas stercoris cultured for 7 days was collected, centrifuged at 5000 g for 20 min, and resuspended in a fresh and sterile HEPES medium until the OD600 reached about 1.0, with a concentration multiple of 40-50 times. Taken was a 1.5 mL sterile centrifuge tube, and it was sequentially added with 195 μL of sterile water, 5 μL of different concentrations of solutions of syringic acid and 1,9-decanediol in DMSO, 100 μL of the fresh and sterile HEPES medium, and 200 μL of a resuspended bacterial solution, and then cultured in a water bath at 25° C. under a dark condition for 2 hours. Then the mixed system was added with 20 μL of 0.1M Allylthiourea to terminate the nitrosification. […]

[3] = tested on: Nitrosomonas; assay: Nitrosification inhibition activity of syringic acid alone and as promoter of 1,9-decanediol (summary statement)
Excerpt: The root exudates of 19 rice varieties are collected, concentrated, and determined for their nitrosification inhibition activities by using Nitrosomonas europaea. The varieties with significant effects are further screened out from them, to select a variety of which the root exudate has a significant inhibitory effect and a variety of which the root exudate has an effect opposite to the former, and then they are subjected to GC/MS identification for components thereof. By component comparison of the two varieties, syringic acid (4-Hydroxy 3,5-dimethoxybenzoic acid, with the molecular weight of 198.18) is identified in the root exudate of the rice variety Wuyunjing 7 having a significant inhibitory effect.

## CC(O)CCCCCCCCO (stereo not shown) [1,9-decanediol]
[1]; 1,9-decanediol added alone
  inhibition rate for the nitrosification process of Nitrosomonas europaea: 41.2%
[1]; 1,9-decanediol plus syringic acid at 10 μ·mL^−1
  nitrification inhibition rate: 51.7%
[1]; 1,9-decanediol plus syringic acid at 100 μ·mL^−1
  nitrification inhibition rate: 61.1%
[1]; 1,9-decanediol plus syringic acid at 500 μ·mL^−1
  nitrification inhibition rate: 69.2%
[2]; 1,9-decanediol plus 10 μg·mL^−1 of syringic acid
  inhibition rate (nitrification inhibition effect on Nitrosomonas stercoris): 60.5%
[2]; 1,9-decanediol plus 100 μg·mL^−1 of syringic acid
  inhibition rate (nitrification inhibition effect on Nitrosomonas stercoris): 70.2%
[2]; 1,9-decanediol plus 500 μg·mL^−1 of syringic acid
  inhibition rate (nitrification inhibition effect on Nitrosomonas stercoris): 89.9%
[2]; 1,9-decanediol without syringic acid
  inhibition rate (nitrification inhibition effect on Nitrosomonas stercoris): 51.5%

## COc1cc(C(=O)O)cc(OC)c1O [syringic acid, 4-Hydroxy 3,5-dimethoxybenzoic acid]
[3]; syringic acid alone
  inhibitory activity to the Nitrosomonas: no significant inhibitory activity
[3]; syringic acid combined with 1,9-decanediol
  effect concentration for promoting the inhibition of 1,9-decanediol to the nitrosification activity of the Nitrosomonas: 10 to 500 µg/mL
